In brackets after ≈: the same amount, converted by molar mass.
Key:
[1] = system: ai5γ group II intron (D135 ribozyme); assay: Fluorescent D135 ribozyme cleavage assay (IC50); type: biochemical, Saccharomyces cerevisiae; conditions: D135 ribozyme cleavage of substrate 17/2 DL, 100 mM MgCl2, 500 mM KCl, 37° C., 10 minutes
Experimental: The D135 ribozyme (Su et al., 2005, Nucleic Acids Res, 33:6674-6687), fluorescently labeled oligo substrate 17/2 DL (FIG. 1A-FIG. 1D) (both at 20 nM final concentrations in 50 mM MOPS, pH 7.0, 100 mM MgCl2, 0.5M KCl), and the test compounds (final concentration of 10 μM in 50 mM MOPS, pH 7.0, 100 mM MgCl2, 0.5M KCl) were aliquoted onto black non-binding 384-well plates (Corning 3757) using the multidrop combi (ThermoFisherScientific) and pintool (V & P Scientific). The reaction mixtures were incubated at 37° C. for 45 minutes, then the reaction was quenched with 100 mM EDTA and fluorescence intensity was analyzed on a Tecan Infinite multimode plate reader (λex 520 nm, λem 560 nm, 5 nm bandwidth). Data were normalized to untreated wells and wells lacking the D135 ribozyme, and percent of inhibition was calculated using ActivityBase (IDBS). The Z′-factor was calculated as described (Zhang et al., 1999, J Biomol Screen, 4:67-73): Z′=1−3×(σp+σn)/|μp−μn|, • where μp and σn are mean value and standard deviation for the positive control (substrate only), and where μn and σn are mean value and standard deviation for the negative control (no compound). The average Z′-factor from the screen was 0.83±0.03. IC50 Measurement for the Small Molecule Inhibition of the D135 Ribozyme Cleavage Reaction.
Black 96-well plates (Corning 3695) were filled with 50 μl of solution containing 20 nM D135 ribozyme, 20 nM double-labeled substrate 17/2 DL and small molecule inhibitor in 50 mM MOPS, pH 7.0, 100 mM MgCl2 and 500 mM KCl. Small molecule inhibitors were tested at 19 different concentrations ranging from 5 nM to 1 mM. Plates were incubated at 37° C. for 10 minutes, then reaction mixtures were quenched with 100 mM EDTA and analyzed on the Synergy H1 plate reader (BioTek). Each experiment was performed in triplicate. Data were fit to a 4-parameter logistic function c+(d−c)/(1+(x/a)^b), where a is the IC50, b is the slope parameter, c is the minimum response and d is the maximum response. Data are reported as average±s.e.m

[2] = system: C. parapsilosis; assay: MIC determination against C. parapsilosis; type: cell-based, Candida parapsilosis; conditions: Lodderomyces parapsilosis; RPMI-1640, 35° C. or 37° C., turbidity after 24 and 48 hours
Experimental: Minimal inhibitory concentrations (MICs) for C. parapsilosis were determined in a final volume of 100 μl. Fresh stock solutions of control antifungal drugs (Amphotericin B and Itraconazole) and of test compounds were prepared at 3.2 mg/ml and at 12.8 mg/ml respectively in DMSO. After placing the stock in the first well, solutions of test compounds and antifungal controls were serially diluted 1:2 with DMSO into the first […] successive wells of a 12-well row on a 96-well plate (as described above). After dilution, 2.5 μl from each of these 10 wells were transferred onto a separate 96-well plate and diluted with 122.5 μl of RPMI-1640 medium (Sigma). Wells 11 and 12 contained 2.5 μl DMSO and 122.5 μl of RPMI-1640 as a positive growth control (no compound) and sterility control (no inoculum added). A 50 μl volume was taken from each of the RPMI dilutions (wells 1-12) and transferred to the wells of a third 96-well plate (assay plate), where they were mixed with an equal volume (50 μl) of freshly prepared inoculum of C. parapsilosis in RPMI-1640 medium, set at a density to provide the 0.5×10^3 to 2.5×10^3 colony forming units per 1 mL (except for the sterility control). Sterility control was mixed with 50 μl of sterile medium.
The final concentration range of the assay was 0.25-128 μg/ml for test compounds and 0.0625-32 μg/ml for Amphotericin B and Itraconazole. The final concentration of DMSO was 1%. The assay plate was incubated at 35° C. or 37° C. and visually analyzed for turbidity after 24 and 48 hours of incubation. The lowest compound concentration at which no growth was apparent is reported as the MIC. All experiments were performed in triplicate.

[3] = system: HEK-293T cells; assay: Cytotoxicity in HEK-293T cells (Cell Titer Glo); type: cell-based, human; conditions: Homo sapiens, cytotoxicity, 24 hours with compound, read-out: IC50 HEK-293
Experimental: HEK-293T cells were cultured in Dulbecco's Modified Eagle's Medium (DMEM) (Gibco) supplemented with 10% Fetal Bovine Serum (FBS, Gibco) and 100 U/ml of Penicillin-Streptomycin (Gibco) at 37° C. and 5% CO2. For the cytotoxicity experiments, cells were aliquoted into black 96-well plates with a clear bottom (Corning 3603) at a concentration of 10,000 cells per well. The cells were grown at 37° C., 5% CO2 for 5-6 hours, then the medium was replaced with the same medium without FBS and cells were grown at 37° C., 5% CO2 for 24 hours. Freshly prepared stock solutions of test compounds (12.8 mg/ml in DMSO) were serially diluted 1:2 with DMSO into the first 11 successive wells of a 12-well row on a 96-well plate as described above. Well 12 was used as a growth control (no compound). […] After incubation, cell viability was determined using the luminescent Cell Titer Glo cell viability assay (Promega), in which 100 μl of the assay reagent was added to each well of the assay plate. After gentle shaking for 7-10 minutes, the plates were analyzed on a Synergy H1 plate reader (BioTek). Luminescence was plotted against the compound concentration and IC50 values were determined by fitting the data to a 4-parameter logistic function c+(d−c)/(1+(x/a)^b), where a is the IC50, b is the slope parameter, c is the minimum response and d is the maximum response. Experiments were replicated to ensure reproducibility.

SMILES | IC50 [1] [µM] | MIC [2] [µg/mL] | IC50 [3] [µg/mL]
COc1cc(/C=C2\Oc3cc(O)cc(O)c3C2=O)cc(OC)c1 [APY-012] | > 500 | > 128 | –
O=C1/C(=C/c2cc(O)c(O)c(O)c2)Oc2ccccc21 [APY-024, (Z)-2-(3,4,5-Trihydroxybenzylidene)benzofuran-3(2H)-one] | – | 8 (≈ 29.6 µM) | 23 ± 2
O=C(N/N=C/c1cc(F)c(O)c(F)c1)c1cc(O)c(O)c(O)c1 [APY-031] | 6.3 | 32 (≈ 98.7 µM) | 47.8
O=C(N/N=C/c1ccc(O)cc1)c1cc(O)c(O)c(O)c1 [APY-032] | 10.6 | 8 (≈ 27.8 µM) | 4.14
O=C(N/N=C/c1ccc(O)cc1Cl)c1cc(O)c(O)c(O)c1 [APY-033] | 6.5 | 8 (≈ 24.8 µM) | 50
O=C(N/N=C/c1ccc(O)c(Cl)c1)c1cc(O)c(O)c(O)c1 [APY-034] | 4.7 | 8 (≈ 24.8 µM) | 54.5
COc1cc(/C=N/NC(=O)c2cc(O)c(O)c(O)c2)cc(O)c1OC [APY-036] | 7.7 | 4 (≈ 11.5 µM) | 10.4
O=C(N/N=C/c1cccc(O)c1O)c1cc(O)c(O)c(O)c1 [APY-037] | 3.7 | 8 (≈ 26.3 µM) | 5.4
COc1ccc(/C=N/NC(=O)c2cc(O)c(O)c(O)c2)cc1OC [APY-041] | 3.8 | 8 (≈ 24.1 µM) | 49.5
O=C(c1cc(O)c(O)c(O)c1)c1cc2ccccc2o1 [APY-068, Benzofuran-2-yl(3,4,5-trihydroxyphenyl)methanone] | – | 16 (≈ 59.2 µM) | 1.3 ± 0.3
O=C(c1cc(O)c(O)c(O)c1)N1CCc2ccccc2C1 [APY-085] | 6.4 | 32 (≈ 112 µM) | 18.7
O=C(c1cc(O)c(O)c(O)c1)N1CCC(c2ccccc2)C1 (stereo not drawn) [APY-086] | 61 | 64 (≈ 214 µM) | 43.7
O=C(c1cc(O)c(O)c(O)c1)N1CCC(c2noc3cc(F)ccc23)CC1 [APY-088] | 24 | 16 (≈ 43 µM) | 6.55
CCN(CC)Cc1ccc(-c2ccc(-c3nc(-c4cc(O)c(O)c(O)c4)cs3)cc2)cc1 [APY-092] | 1.3 | 16 (≈ 35.8 µM) | 24.8
O=C(c1cc(O)c(O)c(O)c1)c1cc2cc(-c3ccc(C(=O)NC4CCCC4)c(Cl)c3)ccc2o1 [APY-095] | – | 4 to 8 (≈ 8.13 to 16.3 µM) | 2.5
O=C(c1ccc([N+](=O)[O-])cc1)c1cc2cc(-c3ccc(CO)cc3)ccc2o1 [APY-100] | > 1000 | > 128 | > 128
Oc1cc(-c2csc(-c3ccc(Cl)cc3)n2)cc(O)c1O [NED-2014] | 46 ± 2 | 8 (≈ 25 µM) | 0.6
Oc1cc(-c2nc3ccc(C(F)(F)F)cc3s2)cc(O)c1O [NED-2016] | > 1000 | 4 (≈ 12.2 µM) | 1.5
Cc1ccc(NC(=O)c2ccc3oc(C(=O)c4cc(O)c(O)c(O)c4)cc3c2)c(C)c1 [NED-2021, N-(2,4-dimethylphenyl)-2-(3,4,5-trihydroxybenzoyl)benzofuran-5-carboxamide] | > 1000 | 32 to 64 (≈ 76.7 to 153 µM) | –
CC(C)N1CCN(C(=O)c2ccc3oc(C(=O)c4cc(O)c(O)c(O)c4)cc3c2)CC1 [NED-2022, (4-isopropylpiperazin-1-yl)(2-(3,4,5-trihydroxybenzoyl)-benzofuran-5-yl)methanone] | 52 ± 12 | 16 (≈ 37.7 µM) | –
COc1cc(/C=N/NC(=O)c2cc(O)c(O)c(O)c2)cc(OC)c1OC [NED-2039, (E)-3,4,5-trihydroxy-N′-(3,4,5-trimethoxybenzylidene)benzohydrazide] | 6 ± 1 | 8 (≈ 22.1 µM) | –
CCN(CC)CCNC(=O)c1c(C)[nH]c(/C=C/C(=O)c2cc(O)c(O)c(O)c2)c1C [NED-2041] | 12 ± 4 | 32 (≈ 77 µM) | –
Cc1[nH]c(/C=C/C(=O)c2cc(O)c(O)c(O)c2)c(C)c1C(=O)N1CCC(N(C)C)CC1 [NED-2042] | > 1000 | 16 (≈ 37.4 µM) | –
NNC(=O)c1cc(O)c(O)c(O)c1 [NED-2047, 3,4,5-trihydroxybenzohydrazide] | 77 ± 3 | 16 to 32 (≈ 86.9 to 174 µM) | –
O=C(N/N=C/C1CCCCC1)c1cc(O)c(O)c(O)c1 [NED-2251, (E)-N′-(cyclohexylmethylene)-3,4,5-trihydroxybenzohydrazide] | – | 16 to 32 (≈ 57.5 to 115 µM) | –

Continued, in another order:

IC50 [1] [µM] | MIC [2] [µg/mL] | SMILES | IC50 [3] [µg/mL]
> 500 | > 128 | COc1cc(/C=C2\Oc3cc(O)cc(O)c3C2=O)cc(OC)c1OC [APY-003] | > 64
7.7 | 4 (≈ 11.5 µM) | COc1cc(/C=N/NC(=O)c2cc(O)c(O)c(O)c2)cc(OC)c1O [APY-035] | 39.3
9.9 | 8 (≈ 27.8 µM) | O=C(N/N=C/c1cccc(O)c1)c1cc(O)c(O)c(O)c1 [APY-040] | 30.1
> 500 | > 128 | COc1cccc(/C=N/NC(=O)c2ccc(O)c(O)c2)c1O [APY-054] | > 64
12.9 | 16 (≈ 58.3 µM) | O=C(N/N=C/c1cncnc1)c1cc(O)c(O)c(O)c1 [APY-057] | 39.4
10.1 | 4 (≈ 12.2 µM) | COc1ccc(/C=C/C=N/NC(=O)c2cc(O)c(O)c(O)c2)cc1 [APY-058] | 23
79 | 32 (≈ 102 µM) | O=C(c1cc(O)c(O)c(O)c1)N1CCC(c2ccccc2)CC1 [APY-087] | 8.4
– | 8 to 16 (≈ 16.6 to 33.2 µM) | CCCCNS(=O)(=O)c1ccc(-c2ccc3oc(C(=O)c4cc(O)c(O)c(O)c4)cc3c2)cc1 [APY-094, N-Butyl-4-{2[(3,4,5-trihydroxyphenyl)carbonyl]-1-benzofuran-5-yl}benzene-1-sulfonamide] | 15 ± 4
– | 2 to 4 (≈ 3.94 to 7.88 µM) | CCN(Cc1ccccc1)C(=O)c1ccc(-c2ccc3oc(C(=O)c4cc(O)c(O)c(O)c4)cc3c2)cc1 [APY-096] | 1.4
> 1000 | > 128 | CS(=O)(=O)c1ccc(C(=O)c2cc3cc(-c4ccc(CO)cc4)ccc3o2)cc1 [APY-099] | 8.2
> 1000 | 16 to 32 (≈ 50.9 to 102 µM) | O=C(c1cc(O)c(O)c(O)c1)N1CCN(c2ccccc2)CC1 [NED-2015] | 4.4
> 1000 | 16 to 32 (≈ 50.9 to 102 µM) | O=C(O)c1ccc2oc(C(=O)c3cc(O)c(O)c(O)c3)cc2c1 [NED-2017] | –
